Measured values taken from patent US11278587B2 (9 METERS BIOPHARMA, INC., priority 2018, dated 2022).
Ends that are not written are not given here.

System: MCA205 fibrosarcoma cells
Test: MCA205 subcutaneous model, tumor growth kinetics
Format: in vivo, C57BL/6 mice
Details: larazotide 2 days per week with anti-PD1 antibody i.p. at 3 day intervals

Sequence: GGVLVQPG [larazotide]
- enhancement of anti-PD1 effect on MCA205 tumor progression: did not appear to enhance this effect
